# Experimental data from patent publication US12636270B2, “Levothyroxine liquid formulations” (Fresenius Kabi USA, LLC, priority 2016, dated 2026).
# Where two headings read alike, the source gives them in different places.
# Conditions: tromethamine 10 mg/mL, normal saline
# Description: The HPLC conditions were as follows: • Column: Waters […]™ C8 (5 μm, 4.6×150 mm) HPLC column • Mobile Phase A: Sodium heptanesulfonate/Acetonitrile/Water/Methanol/H3PO4 (4.023 g/800 mL/1600 mL/1600 mL/4 mL) • Mobile Phase B: Sodium heptanesulfonate/Acetonitrile/Water/Methanol/H3PO4 (2.013 g/1000 mL/100 mL/900 mL/2 mL) • Diluent: 0.01 N NaOH • Column temperature: 25° C. • Flow rate: 1.5 mL/min • Injection volume: 40-200 μL • Autosampler temperature: 5° C. • Detection: UV at 225 nm • Separation mode: Gradient Gradient Program:
# The effect of pH on levothyroxine stability was further tested in samples having a pH 9.5-11.5. Separate samples containing levothyroxine sodium at a concentration of 20 mcg/mL or 100 mcg/mL, tromethamine at a concentration of 10 mg/mL in normal saline were adjusted to various pH levels. 5 mL of each sample was filled into 10 cc amber tubing vials, and the vials were stoppered with 20 mm stoppers under nitrogen. The samples were stored at temperatures of 25° C., 40° C., and 55° C. The samples stored at 55° C. were analyzed by HPLC at 1 W and 2 W of storage. The samples stored at 25° C. and 40° C. were analyzed by HPLC at 2M of storage using the HPLC conditions described hereinabove.
# [1] = 25° C., 2 M, pH 10.4, 20 mcg/mL
# [2] = 25° C., 2 M, pH 10.4, 100 mcg/mL
# [3] = 25° C., 2 M, pH 11.5, 20 mcg/mL
# [4] = 40° C., 2 M, pH 10.4, 20 mcg/mL
# [5] = 40° C., 2 M, pH 10.4, 100 mcg/mL
# [6] = 40° C., 2 M, pH 11.5, 20 mcg/mL
# [7] = 55° C., 1 W, pH 10.4, 20 mcg/mL
# [8] = 55° C., 1 W, pH 10.4, 100 mcg/mL
# [9] = 55° C., 1 W, pH 11.5, 20 mcg/mL
# [10] = 55° C., 2 W, pH 10.4, 20 mcg/mL
# [11] = 55° C., 2 W, pH 10.4, 100 mcg/mL
# [12] = 55° C., 2 W, pH 11.5, 20 mcg/mL
structure (smiles),measurement,setting,value
"N[C@@H](Cc1cc(I)c(Oc2cc(I)c(O)c(I)c2)c(I)c1)C(=O)[O-].[Na+] [Levothyroxine Na, 4-(4-hydroxy-3,5-diiodophenoxy)-3,5-diiodo-L-phenylalanine sodium]",% Liothyronine,"25° C., 2 M, pH 9.5, 20 mcg/mL",0.34%
same,% largest unknown impurity,"25° C., 2 M, pH 9.5, 20 mcg/mL",0.11%
same,% total impurities,"25° C., 2 M, pH 9.5, 20 mcg/mL",0.7%
same,% Liothyronine,[1],0.17%
same,% largest unknown impurity,[1],0.20%
same,% total impurities,[1],0.6%
same,% Liothyronine,[2],0.23%
same,% largest unknown impurity,[2],0.11%
same,% total impurities,[2],0.6%
same,% Liothyronine,[3],0.34%
same,% largest unknown impurity,[3],15.4%
same,% total impurities,[3],19.6%
same,% Liothyronine,"40° C., 2 M, pH 9.5, 20 mcg/mL",1.00%
same,% largest unknown impurity,"40° C., 2 M, pH 9.5, 20 mcg/mL",0.14%
same,% total impurities,"40° C., 2 M, pH 9.5, 20 mcg/mL",1.44%
same,% Liothyronine,[4],0.38%
same,% largest unknown impurity,[4],0.22%
same,% total impurities,[4],0.88%
same,% Liothyronine,[5],0.49%
same,% largest unknown impurity,[5],0.10%
same,% total impurities,[5],0.8%
same,% Liothyronine,[6],0.31%
same,% largest unknown impurity,[6],9.2%
same,% total impurities,[6],12.1%
same,% Liothyronine,"55° C., 1 W, pH 9.5, 20 mcg/mL",0.9%
same,% largest unknown impurity,"55° C., 1 W, pH 9.5, 20 mcg/mL",0.09%
same,% total impurities,"55° C., 1 W, pH 9.5, 20 mcg/mL",1.2%
same,% Liothyronine,[7],0.2%
same,% largest unknown impurity,[7],0.09%
same,% total impurities,[7],0.5%
same,% Liothyronine,[8],0.3%
same,% largest unknown impurity,[8],0.11%
same,% total impurities,[8],0.7%
same,% Liothyronine,[9],0.1%
same,% largest unknown impurity,[9],0.08%
same,% total impurities,[9],0.4%
same,% Liothyronine,"55° C., 2 W, pH 9.5, 20 mcg/mL",1.9%
same,% largest unknown impurity,"55° C., 2 W, pH 9.5, 20 mcg/mL",0.1%
same,% total impurities,"55° C., 2 W, pH 9.5, 20 mcg/mL",2.0%
same,% Liothyronine,[10],0.4%
same,% largest unknown impurity,[10],0.1%
same,% total impurities,[10],0.9%
same,% Liothyronine,[11],0.8%
same,% largest unknown impurity,[11],0.11%
same,% total impurities,[11],1.1%
same,% Liothyronine,[12],0.2%
same,% largest unknown impurity,[12],0.1%
same,% total impurities,[12],0.4%
